Measurements taken from US9994552B2, “Compositions useful for treating disorders related to kit” (BLUEPRINT MEDICINES CORPORATION, priority 2013, dated 2018).

What was measured:
[1] = biological target: Kit D816V kinase activity (Kit autophosphorylation at tyrosine 719) (Homo sapiens (Human), UniProt P10721, D816V/V560G); assay: HMC1.2 Autophosphorylation Assay (AlphaLISA phospho-Y719 c-Kit)
Description: 10,000 HMC1.2 cells were incubated in 22 ul culture media (phenol-red free IMDM, no serum) in each well of a 384-well plate and serum starved overnight in a tissue culture incubator (5% CO2, 37° C.). […] After 90 minutes, 6 ul of 5× AlphaLISA Lysis Buffer (Perkin Elmer) supplemented with a protease and phosphatase inhibitor cocktail (Cell Signaling Technologies) was added to each well and shaken at 450 rpm for 15 minutes at 4° C. […] 10 ul of 100 ug/ml streptavidin donor beads (Perkin Elmer) were added to each well, blocked from light with aluminum adhesive and shaken at 300 rpm at room temperature for 2 hours. Fluorescence signal was obtained on Envision (Perkin Elmer) by AlphaScreen 384 well HTS protocol.

HMC1.2 cells = assay: HMC1.2 Proliferation Assay (CellTiter-Glo); conditions: 72 h, read-out: HMC1.2 Proliferation IC50
Description: 1000 HMC1.2 cells were incubated in 22 ul culture media (IMDM, 10% calf serum with Iron) in each well of a 384-well plate overnight in a tissue culture incubator (5% CO2, 37° C.). […] After 3 days incubation in tissue culture incubator, 25 ul CellTiter-Glo (Promega) solution was added to each well for ATP/cell viability measurement.
In addition, these compounds were assayed for their ability to inhibit the dependence of these cells on Kit kinase activity by disrupting their growth and proliferation.

wild type Kit = wild type Kit (Homo sapiens (Human), UniProt P10721); assay: Kit wild type assay at Km (Caliper electrophoretic mobility shift); type: biochemical; conditions: wild type Kit 2 nM, 400 uM ATP (Km), 1 uM Srctide, 25 C, 90 minutes; read-out: INH-KITWT ENZ-KM IC50 (nM) (Num)
Description: (§1) In order to assess the activity of chemical compounds against the relevant kinase of interest, the Caliper LifeSciences electrophoretic mobility shift technology platform is used. Fluorescently labeled substrate peptide is incubated in the presence of kinase and ATP so that a […] proportion of the peptide is phosphorylated. At the end of the reaction, the mix of phosphorylated (product) and non-phosphorylated (substrate) peptides are passed through the microfluidic system of the Caliper EZ Reader 2, under an applied potential difference. The presence of the phosphate group on the product peptide provides a difference in mass and charge between those of the substrate peptide, resulting in a separation of the substrate and product pools in the sample. As the pools pass a LEDS within the instrument, these pools are detected and resolved as separate peaks. The ratio between these peaks therefore reflects the activity of the chemical matter at that concentration in that well, under those conditions.
(§2) The reaction was stopped by the addition of 70 ul of Stop buffer (100 mM HEPES pH 7.5, 0.015% Brij 35, 35 mM EDTA and 0.2% of Coating Reagent 3 (Caliper Lifesciences)). The plate was then read on a Caliper EZReader 2 (protocol settings: −1.9 psi, upstream voltage −700, downstream voltage −3000, post sample sip 35 s).

D816V Kit = D816V Kit (Homo sapiens (Human), UniProt P10721, D816V); assay: Kit D816V assay at Km (Caliper electrophoretic mobility shift); type: biochemical; conditions: for IC50: D816V Kit 0.5 nM, 15 uM ATP (Km), 1 uM Srctide, 25 C, 90 minutes, read-out: INH-KITD816V ENZ-KM IC50 (nM) (Num); for times more potent against the D816V mutant than against the wild-type Kit: D816V Kit versus wild-type Kit, enzyme assays at Km
Description: as §1, §2

Sequence of Kit D816V kinase activity (Kit autophosphorylation at tyrosine 719) (P10721 26-976 V560G/D816V): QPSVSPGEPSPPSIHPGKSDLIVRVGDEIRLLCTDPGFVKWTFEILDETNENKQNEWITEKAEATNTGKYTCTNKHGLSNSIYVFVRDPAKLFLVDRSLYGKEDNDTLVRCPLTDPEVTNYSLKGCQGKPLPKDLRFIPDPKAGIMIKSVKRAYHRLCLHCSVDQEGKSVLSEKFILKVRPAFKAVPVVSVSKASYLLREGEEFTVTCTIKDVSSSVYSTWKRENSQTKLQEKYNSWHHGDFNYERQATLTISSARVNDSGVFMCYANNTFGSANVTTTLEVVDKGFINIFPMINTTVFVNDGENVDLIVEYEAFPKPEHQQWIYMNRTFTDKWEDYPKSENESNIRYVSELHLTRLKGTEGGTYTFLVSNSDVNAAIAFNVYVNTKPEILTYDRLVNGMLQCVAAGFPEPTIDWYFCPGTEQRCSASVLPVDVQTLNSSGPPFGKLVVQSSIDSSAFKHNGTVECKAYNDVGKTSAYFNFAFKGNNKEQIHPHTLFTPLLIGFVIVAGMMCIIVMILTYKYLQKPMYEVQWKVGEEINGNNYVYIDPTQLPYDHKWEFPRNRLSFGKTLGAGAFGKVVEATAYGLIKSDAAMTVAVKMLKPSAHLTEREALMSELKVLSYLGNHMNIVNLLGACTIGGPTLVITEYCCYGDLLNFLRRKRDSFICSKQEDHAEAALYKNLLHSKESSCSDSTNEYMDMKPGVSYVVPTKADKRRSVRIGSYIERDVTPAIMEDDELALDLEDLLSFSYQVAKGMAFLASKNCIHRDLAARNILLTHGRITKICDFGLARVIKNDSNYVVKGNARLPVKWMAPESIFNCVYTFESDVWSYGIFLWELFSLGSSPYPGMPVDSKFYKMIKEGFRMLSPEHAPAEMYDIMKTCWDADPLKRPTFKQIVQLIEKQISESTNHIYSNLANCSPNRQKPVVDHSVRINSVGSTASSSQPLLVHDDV
Sequence of D816V Kit (P10721 26-976 D816V): as the sequence (P10721 26-976 V560G/D816V) above, with G535V counted along it
Sequence of wild type Kit (P10721 26-976): as the sequence (P10721 26-976 V560G/D816V) above, with G535V, V791D counted along it

Row | Structure (SMILES) | IC50 [1] | IC50 (HMC1.2 cells) | IC50 (wild type Kit) | IC50 (D816V Kit) | times more potent against the D816V mutant than against the wild-type Kit (D816V Kit)
1 | c1ccc(Cc2cnc(N3CCN(c4ncnc5[nH]cnc45)CC3)nc2)cc1 [Compound 1] | > 10000 nM | 1000 to 10000 nM | > 1000 nM | 10 to 100 nM | at least 100 times
2 | COc1ccc2ncnc(N3CCN(c4ncc(Cc5ccccc5)cn4)CC3)c2c1 [Compound 5] | – | 1000 to 10000 nM | 100 to 1000 nM | 10 to 100 nM | –
3 | COc1ccc2ncnc(N3CCN(c4ncc(Cc5ccccc5)cn4)[C@H](C)C3)c2c1 [Compound 7] | – | 1000 to 10000 nM | 100 to 1000 nM | 10 to 100 nM | –
4 | COc1cc2ncnc(N3CCN(c4ncc(Nc5ccccc5)cn4)CC3)c2cc1OC [Compound 13, 2-(4-(6,7-dimethoxyquinazolin-4-yl)piperazin-1-yl)-N-phenylpyrimidin-5-amine] | 100 to 1000 nM | 1000 to 10000 nM | 100 to 1000 nM | 1.01 to 10 nM | –
5 | COc1cc2ncnc(N3CCN(c4ncc(Cc5ccc(C)cc5)cn4)C(=O)C3)c2cc1OC [Compound 22] | – | 1000 to 10000 nM | 11 to 100 nM | 1.01 to 10 nM | –
6 | COc1cc2ncnc(N3CCN(c4ncc(Cc5ccccc5)cn4)C(C)C3)c2cc1OC (centres unmarked) [Compound 23] | 100 to 1000 nM | 1000 to 10000 nM | 11 to 100 nM | 1.01 to 10 nM | less than 5 times
7 | COc1cc2ncnc(N3CCN(c4ncc(Nc5ccccc5)cn4)[C@H](C)C3)c2cc1OC [Compound 30] | – | 1000 to 10000 nM | 100 to 1000 nM | 1.01 to 10 nM | –
8 | COc1cc2ncnc(N3CCN(c4ncc(Cc5ccccc5)c(O)n4)CC3)c2cc1OC [Compound 35] | 100 to 1000 nM | 100 to 1000 nM | < 10 nM | < 1 nM | –
9 | COc1cc2ncnc(N3CCN(c4ncc(COc5ccccc5)cn4)CC3)c2cc1OC [Compound 36] | 100 to 1000 nM | 1000 to 10000 nM | 11 to 100 nM | 1.01 to 10 nM | –
10 | COc1cc2ncnc(N3CCN(c4ncc(Nc5ccc(F)cc5)cn4)CC3)c2cc1OC [Compound 42] | – | 1000 to 10000 nM | 100 to 1000 nM | 1.01 to 10 nM | –
11 | COc1cc2ncnc(N3CCN(c4ncc(Cc5ccccc5)cn4)CC3)c2cc1OCC1CNC1 [Compound 79] | 10 to 100 nM | 1000 to 10000 nM | 11 to 100 nM | 1.01 to 10 nM | –
12 | COc1cc2ncnc(N3CCN(c4ncc(Cc5ccccc5)cn4)CC3)c2cc1OCC(O)CO (centres unmarked) [Compound 84] | 100 to 1000 nM | 1000 to 10000 nM | 11 to 100 nM | 1.01 to 10 nM | –
13 | COc1cc2c(N3CCN(c4ncc(Cc5ccccc5)cn4)CC3)ncnc2cc1OCC(O)CO (centres unmarked) [Compound 85] | 100 to 1000 nM | 1000 to 10000 nM | 11 to 100 nM | 1.01 to 10 nM | –
14 | COc1cc2ncnc(N3CCN(c4ncc(Cc5ccc(C(F)(F)F)cc5)cn4)CC3)c2cc1OC [Compound 88] | – | > 10000 nM | 100 to 1000 nM | 10 to 100 nM | –
15 | COc1cc2ncnc(N3CCN(c4ncc(Cc5ccccc5)cn4)CC3)c2cc1OCC1CCNCC1 [Compound 98] | 10 to 100 nM | 1000 to 10000 nM | 11 to 100 nM | < 1 nM | –
16 | COc1cc2ncnc(N3CCN(c4ncc(Cc5ccccc5)cn4)CC3)c2cc1OC1CCN(C)CC1 [Compound 99] | 100 to 1000 nM | 1000 to 10000 nM | 11 to 100 nM | 1.01 to 10 nM | –
17 | COc1cc2ncnc(N3CCN(c4ncc(Cc5ccccc5)cn4)CC3)c2cc1OCC1CNCCO1 (centres unmarked) [Compound 105] | 10 to 100 nM | 100 to 1000 nM | 11 to 100 nM | < 1 nM | –
18 | COc1cc2c(N3CCN(c4ncc(Br)cn4)CC3)ncnc2cc1OCCCN1CCCC1 [Compound 107] | – | 1000 to 10000 nM | 100 to 1000 nM | 10 to 100 nM | –
19 | COc1cc2ncnc(N3CCN(c4ncc(Cc5ccccc5)cn4)CC3)c2cc1OCC1CCNC(=O)C1 (centres unmarked) [Compound 109] | 10 to 100 nM | 1000 to 10000 nM | 11 to 100 nM | < 1 nM | –
